A value given as a limit tells only on which side of the number the result lay.

As a reminder, the melting point is the temperature of the solid-liquid transition.

Take `COc1ccc(-c2cc(=Nc3ccc(OCC(O)CNC(C)C)cc3)n(C)c(=O)n2C)cc1OC` (centres undefined): the melting point fell in the range of 129 to 132 °C.
The compound `N#Cc1ccccc1C(C#N)c1ccc(F)cc1` (centres undefined) came in with a melting point of 87 to 89 °C.
For `N#CCN1CCC(c2n[nH]c3cc(F)ccc23)CC1` the value was 149 to 151 °C; for `CCN1CCN(Cc2cc(-c3ccc4c(Nc5cc(OC)c(Cl)cc5Cl)c(C#N)cnc4c3)cs2)CC1`, 118 to 120 °C; for `CCc1nn(CCOc2ccc(C=O)cc2)c(=O)c2ccccc12`, 110 °C.
Compound `CC(=O)OCCn1c(C)c(C(=O)Nc2ccc(OCC(C)(C)C)c(C#N)c2)c2cc(F)ccc21` displayed a melting point of 124 to 125 °C.
`c1ccc(-c2cc(NC3=NCCN3)cc3[nH]cnc23)cc1` yielded a melting point of 149 to 151 °C.
For `COC(=O)CCc1cc2cc(F)ccc2n1S(=O)(=O)c1ccccc1` the value was 79 to 80 °C; for `O=C(O)C(CCc1ccc2c(c1)CCO2)NC(=O)C(F)(F)F` (centres undefined), 125 °C; for `COC(=O)c1nc(-c2ccc(Cl)c(F)c2)c(F)c(N)c1SC`, 125 to 126 °C.
With `O=c1cc(-c2ccc(O)c(Cl)c2)oc2ncccc12`, the melting point was in the range of 259 to 262 °C.
Take `O=C(Nc1cccc(-c2ccnc3c(C(=O)c4cccs4)cnn23)c1)c1cnc[nH]1`: the melting point was 280 to 282 °C.
The result for `CCN1c2ncc(CNc3cccc([N+](=O)[O-])c3)cc2C(=O)N(C)c2ccc(Cl)nc21` reads 171 to 172 °C; that for `COC1CSC2=C(SC1)C(OC(=O)N1CCN(C(=O)C(C)C)CC1)N(c1ccc3ccc(Cl)nc3n1)C2=O` (centres undefined), 232 °C.
The result for `O=C(Nc1ccnc(Br)c1)C1(O)CCCCC1` reads 179 °C; that for `Cc1c(C)c2c(c(C)c1OCCCc1ccccc1)C(c1ccc(C(C)C)cc1)C(C)(C)O2` (centres undefined), 78 to 80 °C; that for `O=C(O)c1ccc(-c2ccnnc2)cc1`, greater than 330 °C.
As to `Cn1nnc(COc2nn3c(-c4ccccc4)nnc3cc2-c2ccccc2)n1`, the melting point was in the range of 228 to 233 °C.
The result for `CC1CC(C)C(C)(C)c2ccc(-c3cccc(-c4ccc(C(=O)O)cc4)c3O)cc21` (centres undefined) reads 121 °C; that for `Cc1ncn(-c2cc(F)ccc2C#N)n1`, 117 to 118 °C.
As to `O=C(O)Cc1c(C(=O)c2ccc(O)cc2)[nH]c2cc(Cl)ccc12`, the melting point fell in the range of 231 to 234 °C.
In the case of `COc1ccc(C(=O)Nc2cc(NC(=O)c3cccc(NC(C)=O)c3)ccc2C)cc1OC`, the melting point lay in the range of 187 to 188 °C.
For `COc1cc(-c2ccc(Cl)cc2)cc2oc(=O)c(C)c(C)c12` the value was 148 °C.
For `CCOc1ccnc(N2CCN(C(=O)c3ccccc3C=O)CC2)n1` the value was 134 to 136 °C; for `Nc1ccc(C2(C(=O)O)CC2C(=O)O)cc1` (centres undefined), 154 to 155 °C.
The result for `CCCN(CCC)C(=O)CNc1nc(-c2ccccc2)nc2c1CCCC2` reads 87 to 88 °C.
Regarding `CN(C)C1CCc2[nH]c3cc(F)ccc3c2C1` (centres undefined), the melting point was in the range of 174 to 176 °C.
For `CCCCOc1c(CNC(=O)OC(C)(C)C)n(CC(C)(C)C)c(=O)c2ccc(F)cc12` the value was 168 to 169 °C.
In the case of `O=C(C=CC(=O)Nc1ccccc1)NCc1cc(Br)cc2[nH]c(=O)c(=O)[nH]c12`, the melting point was greater than 250 °C.
The result for `CC(C)Cn1c(=O)n(C)c(=O)c2c(SCCN(C)C)n(Cc3cccc4ccccc34)cc21` reads 140 to 144 °C.
`COc1ccc(-c2c(-c3ccccc3)c(Sc3ccc4c(c3)CC[C@H]3N(C)C(=O)CC[C@]43C)nc3ccccc23)cc1` registered a melting point of 239 to 242 °C.
As to `COc1cccc(Cl)c1C1Cc2c(ccn2C)C2C(=O)NC(=O)C12` (centres undefined), the melting point was in the range of 186 to 188 °C.
Turning to `Cc1c(F)c(N2CCC(C)(CN)C2)c(F)c2c1c(=O)c(C(=O)O)cn2C1CC1` (centres undefined), the melting point lay within 182 to 184 °C.
For `CC(CCc1ccccc1)N(Cc1ccccc1)CC(O)c1ccc(N)c(S(N)(=O)=O)c1` (centres undefined) the value was 133 to 136 °C.
In turn, `N#Cc1ccc(CCCN)cc1` had a melting point of 72 to 74 °C.
For `COc1ccc(C=C(C)[N+](=O)[O-])c(OC)c1OC` the value was 57 to 58 °C.
As to `CC(CCN1C(=O)c2ccccc2C1=O)=NO`, the melting point was 151 to 172 °C.
The result for `CC1(O)c2ccccc2COc2ccc(C(=O)O)cc21` (centres undefined) reads 258 °C.
Compound `Cc1cccc(C)c1NC(=O)N=C1CCC(C)N1C` (centres undefined) displayed a melting point of 120 to 122 °C.
For `COc1ccc(-n2c(-c3ccc(Br)cc3)nc3c4ccccc4c4ccccc4c32)cc1` the value was 239 °C.
For `Cc1cc(OCC(F)(F)F)c([N+](=O)[O-])c(OCC(F)(F)F)n1` the value was 72.8 to 73.2 °C.
For `CN1CCN(C2=Nc3ccccc3N3CCc4cc(Cl)cc2c43)CC1` the value was 182 to 183 °C; for `Nc1nc(NC2CC2c2ccccc2)c2ncn(C3C=CC(CO)C3)c2n1` (centres undefined), 188 to 190 °C.
Compound `Cn1nnnc1CC(O)(c1ccccc1)c1ccccc1` returned a melting point of 175 to 176 °C.
For `Cc1nc2c(c3c1[nH]c1ccccc13)C(=O)CC(C)(C)C2` the value was 176 to 177 °C.
The result for `CN1C(=O)CC[C@]2(C)c3ccc(Sc4nc5cc(Cl)ccc5s4)cc3CC[C@@H]12` reads 179 to 180 °C; that for `Nc1ncnn1C(=S)NCCCCCO`, 108 to 109 °C; that for `O=[N+]([O-])c1ccc2c(c1)OC(CO)O2` (centres undefined), 80 to 82 °C.
For `O=S(=O)(/C=C\S(=O)(=O)c1ccccc1)c1ccccc1` the value was 100 to 101 °C; for `Nc1ccc(-c2noc(-c3cnc4ccc(-c5ccc(Cl)cc5)cn34)n2)cn1`, 273 °C; for `Cn1c(Cl)c(Cl)c(C#N)c1Cl`, 113 to 114 °C.
`Oc1ccc(Oc2cc3ccc(Cl)cc3cn2)cc1` registered a melting point of 190 °C.
For `COc1cc(C=CC=O)ccc1OCc1coc(-c2ccccc2)n1` the value was 144 to 145 °C; for `Cc1cc(Cl)cc(NC(=O)Cc2ccc(O)cc2)c1`, 176 to 178 °C.
As to `COC(=O)NCC1Cc2cc(Cl)cc(C3CCCCC3)c2O1` (centres undefined), the melting point was 100 to 103 °C.
The result for `O=C(CC1CC1)NC[C@H]1CN(c2ccc3c(c2)CCCc2cnoc2-3)C(=O)O1` reads 187 to 191 °C; that for `CS(=O)(=O)NCc1ccc2[nH]cc(CCN3C(=O)c4ccccc4C3=O)c2c1`, 162 to 165 °C; that for `COc1ccc2[nH]c(SCc3nccc(N4CCCC4)c3Cl)nc2c1`, 131 to 133 °C.
The result for `O=[N+]([O-])c1cccc2c3c(cc([N+](=O)[O-])c12)NCC3CCl` (centres undefined) reads 206 to 207 °C.
Compound `O=CNc1nc(SCc2ccccc2)nn1-c1ccccc1` registered a melting point of 94 °C.
The result for `CNc1nc(-c2cccc(NC(=O)c3cccc(OCc4ccccc4)c3)c2)c2cc(OC)c(OC)cc2n1` reads 110 to 112 °C.
The result for `Cc1ccc(S(=O)(=O)OCCc2c(F)ccc(F)c2F)cc1` reads 73 to 74 °C.
For the compound `COC(=O)[C@@H](NC(=O)OC(C)(C)C)[C@H](O)c1ccccc1`, the melting point lay in the range of 101 to 102 °C.
On to `CC(C)(C)OC(=O)N1CCN(S(=O)(=O)c2ccc(Br)s2)CC1`, for which the melting point is 127 °C.

The values are drawn from a melting point compilation (Tetko et al.; mined from patent text by program, amines drawn as free bases though some values may be those of a salt).
